This note sets out measurements from PMC6268093, “Total Synthesis and Antidepressant Activities of Laetispicine and Its Derivatives” (Molecules, 2012).

Data set [1] concerns the target T1, hERG potassium channel (Homo sapiens, UniProt Q12809). Description: hERG inhibition, automated QPatch patch clamp in CHO cells stably expressing hERG. (Block of hERG is tested as a sign of cardiac risk.)
Method: (§1) A CHO cell line stably expressing hERG potassium channels were voltage clamped using automated QPatch electrophysiology system. Test items were dissolved in DMSO and diluted with external recording buffer. […] Each cell acted as its own control. […] The extent of inhibition of channel was expressed as a percentage of the control response (minus the test compound).
For data set [2], the system named is forced swimming mice (immobility). Kind of data set: Forced swimming test in mice. The settings on record: for inhibition in vivo at 10 mg/kg: Mus musculus, po, mice, 10 mg/kg i.g., 100 × [(control − experiment)/control], read-out: Reduction (%) of immobility time vs control; for Antidepressant activity compared with laetispicine (in words): forced swimming test in mice, 10 mg/Kg. Format: in vivo, KM mice. As for the experimental part: KM mice (18–22 g) of either sex were obtained from Laboratory Animal Center of the College of Medicine, Fudan University. Animals were housed in standard environmental conditions with free access to food and water. The animals were used only once throughout the study. They were allowed to acclimatize to the laboratory seven days before pharmacological tests. The experiment procedures were conducted in compliance with the National Institutes of Health Guide for Care and Use of the laboratory Animals.
Tween 80 was purchased from Sinopharm Chemical Reagent Co., Ltd (Shanghai, China), fluoxetine from Shanghai Zhongxi Pharmaceutical Co., Ltd. All other reagents were of analytical grade. All drugs were dissolved in saline with 2% Tween 80. Drugs (10 mg/kg/2 mL) were administered by intragastric (i.g.) route 60 min before the forced swimming tests. The control group received only saline with 2% Tween 80 simultaneously.
The forced swimming test adopted here is a modification of the method described by Porsoltetal. Briefly, mice were individually forced to swim for 15 min in glass cylinders (height: 20 cm, diameter: 14 cm), containing 10 cm of water at 25 °C, which is a pre-test, and then mice were removed and dried before being returned to cages. Twenty-four hours later, mice were placed in the cylinders again for a 6-min test in the same system depicted above. The duration of immobility was recorded during the last 4 min of the 6-min testing period.
Data obtained were expressed as mean ± SEM and analyzed by analysis of variance (ANOVA) followed by Bonferroni’s test. p-values less than 0.05 (p < 0.05) were used as the significant level. The percent of inhibition was determined using the following formula: Inhibition (%) = 100 × [(control − experiment) / control].

Data set [3] has as its target T1, hERG potassium channel. Description: in vitro.
Method: as §1

T1 sequence (Q12809 whole entry): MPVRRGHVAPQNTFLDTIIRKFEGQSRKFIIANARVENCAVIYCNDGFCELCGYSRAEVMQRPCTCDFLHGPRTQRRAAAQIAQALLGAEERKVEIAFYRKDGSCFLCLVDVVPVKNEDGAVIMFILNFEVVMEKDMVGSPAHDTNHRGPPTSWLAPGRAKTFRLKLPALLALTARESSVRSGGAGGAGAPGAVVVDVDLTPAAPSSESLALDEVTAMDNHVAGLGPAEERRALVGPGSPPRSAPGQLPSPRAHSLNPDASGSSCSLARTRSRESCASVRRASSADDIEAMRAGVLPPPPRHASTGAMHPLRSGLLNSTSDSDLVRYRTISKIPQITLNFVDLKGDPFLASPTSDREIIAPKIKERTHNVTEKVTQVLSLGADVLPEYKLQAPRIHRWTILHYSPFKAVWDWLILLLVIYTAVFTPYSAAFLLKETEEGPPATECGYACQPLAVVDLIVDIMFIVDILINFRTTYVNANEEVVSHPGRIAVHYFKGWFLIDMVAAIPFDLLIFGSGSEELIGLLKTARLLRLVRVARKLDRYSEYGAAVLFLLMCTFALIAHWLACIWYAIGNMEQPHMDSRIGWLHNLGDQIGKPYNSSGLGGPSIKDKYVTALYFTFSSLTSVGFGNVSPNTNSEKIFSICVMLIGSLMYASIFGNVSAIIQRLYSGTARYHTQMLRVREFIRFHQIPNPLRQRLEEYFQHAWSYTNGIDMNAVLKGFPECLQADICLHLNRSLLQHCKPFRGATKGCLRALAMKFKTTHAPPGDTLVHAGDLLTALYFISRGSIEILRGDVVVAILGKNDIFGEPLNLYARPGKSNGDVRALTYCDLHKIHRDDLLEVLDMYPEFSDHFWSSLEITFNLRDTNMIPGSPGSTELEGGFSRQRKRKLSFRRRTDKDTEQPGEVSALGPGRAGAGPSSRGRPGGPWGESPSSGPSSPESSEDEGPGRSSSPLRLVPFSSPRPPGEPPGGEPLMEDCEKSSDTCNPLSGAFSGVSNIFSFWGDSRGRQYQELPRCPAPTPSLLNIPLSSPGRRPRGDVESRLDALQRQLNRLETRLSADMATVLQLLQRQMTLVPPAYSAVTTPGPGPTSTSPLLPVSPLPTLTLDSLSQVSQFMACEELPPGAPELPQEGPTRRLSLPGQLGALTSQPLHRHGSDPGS

Consider `COc1cc(N)c(Cl)cc1C(=O)NC1CCN(CCCOc2ccc(F)cc2)CC1OC` (stereo not shown) [Cisapride, reference compound], for which at 1 µM the inhibition against hERG potassium channel [1] (human, CHO cells stably expressing hERG) was 97.9 ± 0.5%.

Consider `CC(C)CNC(=O)/C=C/C=C/CCC/C=C/Cc1ccccc1` [Compound 1b, N-Isobutyl-11-phenylundeca-2E,4E,9E-trienamide], for which the melting point (usually the temperature, or range, at which the solid turns liquid) lay in the range of 80 to 82 °C. For the same compound, the inhibition in vivo at 10 mg/kg in data set [2] was found to be 39%.

For the compound `COc1ccc(C/C=C/CCC/C=C/C=C/C(=O)NCC(C)C)cc1` [Compound 1c, N-Isobutyl-11-(4-methoxyphenyl)undeca-2E,4E,9E-trienamide], in data set [2], the inhibition in vivo at 10 mg/kg amounted to 5% and the “Antidepressant activity compared with laetispicine (in words)” value is on record as “lost their antidepressant activities entirely”.

Turning to `COc1ccc(C/C=C/CCC/C=C/C=C/C(=O)NCC(C)C)cc1OC` [Compound 1d, N-Isobutyl-11-(3,4-dimethoxyphenyl)undeca-2E,4E,9E-trienamide], the melting point lay within 61 to 63 °C. In addition, in data set [2], the inhibition in vivo at 10 mg/kg was 6% and the “Antidepressant activity compared with laetispicine (in words)” value was “lost their antidepressant activities entirely”.

With `COc1cc(C/C=C/CCC/C=C/C=C/C(=O)NCC(C)C)cc(OC)c1OC` [Compound 1e, N-Isobutyl-11-(3,4,5-trimethoxyphenyl)undeca-2E,4E,9E-trienamide], the melting point fell in the range of 72 to 73 °C. Further, in data set [2], the inhibition in vivo at 10 mg/kg was found to be 27% and the “Antidepressant activity compared with laetispicine (in words)” value was “less antidepressant activities than laetispicine”.

For `CC(C)CNC(=O)/C=C/C=C/CCC/C=C/Cc1ccc2c(c1)CCO2` [Compound 1f, N-Isobutyl-11-(2,3-dihydrobenzofuran-5-yl)undeca-2E,4E,9E-trienamide], in data set [2], the inhibition in vivo at 10 mg/kg is 5% and the “Antidepressant activity compared with laetispicine (in words)” value is given as “lost their antidepressant activities entirely”.

`CC(C)CNC(=O)/C=C/C=C/CCC/C=C/Cc1ccc2c(c1)OCCO2` [Compound 1g, N-Isobutyl-11-(2,3-dihydrobenzo [1, 4]dioxin-6-yl)undeca-2E,4E,9E-trienamide] had a melting point of 69 to 72 °C. Further, in data set [2], the inhibition in vivo at 10 mg/kg was 29% and the “Antidepressant activity compared with laetispicine (in words)” value was “less antidepressant activities than laetispicine”.

For `CC(C)CNC(=O)/C=C/C=C/CCC/C=C/Cc1ccc(Cl)cc1` [Compound 1h, N-Isobutyl-11-(4-chlorophenyl)undeca-2E,4E,9E-trienamide], in data set [2], the inhibition in vivo at 10 mg/kg was 52% and the “Antidepressant activity compared with laetispicine (in words)” value is reported as “better antidepressant activities than that of laetispicine”. On hERG potassium channel [3], the inhibition (as a rule, the relative decrease from the control value, in per cent) at 1 µM worked out at 8 ± 2.3%; the inhibition at 10 µM came out at 13.9 ± 2%; the inhibition at 100 µM came out at 24.2 ± 4.9%. The IC50 (as a rule, the concentration that gives 50% inhibition) at hERG potassium channel [1] was more than 100 µM.

With `CC(C)CNC(=O)/C=C/C=C/CCC/C=C/Cc1ccc(F)cc1` [Compound 1i, N-isobutyl-11-(4-fluorophenyl)undeca-2E,4E,9E-trienamide], the melting point lay within 75 to 77 °C. Also, in data set [2], the inhibition in vivo at 10 mg/kg came to 43% and the “Antidepressant activity compared with laetispicine (in words)” value is reported as “better antidepressant activities than that of laetispicine”. On hERG potassium channel [3], the inhibition at 1 µM amounted to 7.1 ± 0.7%, the inhibition at 10 µM was 10.7 ± 0.1% and the inhibition at 100 µM was determined as 17.7 ± 1.5%. The compound also yielded an IC50 at hERG potassium channel [1] of more than 100 µM.

Take `CNCCC(Oc1ccc(C(F)(F)F)cc1)c1ccccc1` (stereo not shown) [Fluoxetine, fluoxetine, reference compound]: the inhibition in vivo at 10 mg/kg in data set [2] was determined as 0%.

As for `CC(C)CNC(=O)/C=C/C=C/CCC/C=C/Cc1ccc2c(c1)OCO2` [Laetispicine (1a), Laetispicine], the inhibition in vivo at 10 mg/kg in data set [2] was found to be 33%.
